Earlier results, collected in patent publication US5370873A, “Therapeutic compounds derived from the neem tree” (priority 1992, dated 1994).
Read-outs that look alike come from different tables or passages of the source.

Experiments:
[1] = system: murine P-388 lymphocytic leukemia cell line
[2] = in vivo
[3] = not given; remark: listed apart in the source

**Q.** For 1,2-diapoxyazadiradione, which “ED50, murine P-388 lymphocytic leukemia cell line” value [1] is on record?
**A.** 8.5 mg

**Q.** Which “ED50, murine P-388 lymphocytic leukemia cell line” value [1] does the source give for 7-acetyl neotrichilenone here?
**A.** 10 mg

**Q.** Which insect feeding repellency (insect) does the source give for C/C=C(\C)C(=O)O[C@H]1C[C@@H](OC(C)=O)[C@@]2(C(=O)OC)CO[C@H]3[C@@H](O)[C@@](C)([C@]45O[C@@]4(C)[C@H]4C[C@@H]5O[C@@H]5OC=C[C@@]54O)[C@H]4[C@]1(CO[C@]4(O)C(=O)OC)[C@@H]32 [azadiractin] here?
**A.** very potent insect feeding repellents

**Q.** With CC(=O)O[C@@H]1C[C@H]2C(C)(C)C(=O)C=C[C@]2(C)[C@H]2CC[C@@]3(C)[C@H](c4ccoc4)OC(=O)[C@H]4O[C@]43[C@@]21C [gedunin] as the compound, how does the “inhibition of development of Plasmodium falciparum in vitro” value (Plasmodium falciparum) read?
**A.** inhibit the development of the human malarial parasite Plasmodium falciparum in vitro

**Q.** Which results are given for Neem oil?
**A.** local or systemic side effects in human subjects [2]: no local or systemic side effects; local or systemic side effects in human subjects ([2]; po): no local or systemic side effects

**Q.** With nimbidin as the compound, how does the “systemic toxicity in rats” value read?
**A.** failed to demonstrate any systemic toxicity

**Q.** What about the “systemic toxicity in dogs” value [3] of the same compound?
**A.** failed to demonstrate any systemic toxicity
